Measurements reported in patent US8337828B2, “Use of thymosin alpha 1, alone or in combination with PTX3 or ganciclovir, for the treatment of cytomegalovirus infection” (priority 2006, dated 2012).
Ends that are not written are not given here.

System: MCMV
Assay: MCMV infection in mice, virus titers by standard plaque assay on tissues
Assay type: in vivo, BALB/c and C57BL6 mice
Description: BALB/c (FIG. 1a) and C57BL6 (FIG. 1b) mice were infected with 1×10^5 or 5×10^5 PFU of MCMV, respectively. Virus titers were quantified on MEF cells by standard plaque assay on tissues removed at different times (FIG. 1a) or a week after infection (FIG. 1b) and expressed as log 10(mean±standard errors, SE). Thymosin alpha 1 (200 μg/kg given for 7 or 14 days) and GCV (40 mg/kg given three times a week) were administered beginning the day of the infection. Controls received the scrambled peptide. Results are representative of 4 independent experiments. Bars indicate the standard errors. *P<0.05, viral load between treated and untreated mice.
BALB/c or C57BL6 mice were infected with 10^5 or 5×10^5 PFU of MCMV, respectively. Virus titers, expressed as log 10, were quantified on MEF cells by standard plaque assay on lung tissues removed 7 days after the infection. Tα1 (200 μg/kg/daily for a week) and/or GCV (40 mg/kg, three times a week) were administered beginning the day of the infection. Cytokine (pg/ml) levels in culture supernatants of spleen cells (7 days) were determined by ELISA assay. Bars indicate the standard errors. *P<0.05, treated vs untreated mice. Results are representative of 3 independent experiments.
Inbred C57BL6 and BALB/c mice were injected intraperitoneally (i.p.) with 1×10^5 (BALB/c) or 5×10^5 (C57BL6) plaque forming units (PFU) of MCMV. Virus titers were quantified on MEF cells by standard plaque assay on tissues removed a day after treatment. Treatments were as follow: Tα1 ([…]) and PTX3 (1 mg/k/ip) (SIGMA-Tau, Pomezia, Rome, Italy) were given daily for 7 consecutive days beginning the day of the infection. Controls received the scrambled peptide. All organs from uninfected animals were negative viruses. Virus titers are expressed as log 10 (mean±standard errors, SE).
Mice. Wild-type (WT) inbred C57BL6 and BALB/c mice, 8 to 12 weeks old, were purchased from Charles River Breeding Laboratories (Calco, Italy). Pairs of homozygous TLR9-(TLR9−/−), TLR4-(TLR4−/−), and MyD88-(MyD88−/−)-deficient mice (on the C57BL6 background), were bred under specific pathogen-free conditions at the breeding facilities of the University of Perugia, Perugia, Italy. Experiments were performed following protocols approved by the institutional animal committee and in accordance with European Economic Community Council Directive as well as institutional animal care and use guidelines.
Virus, infection and treatments. Stocks of Smith strain MCMV salivary gland extracts were prepared from BALB/c mice and titered in a standard plaque assay on BALB/c murine embryonic fibroblast (MEF) cells (J. Gen. Virol. 2002; 83:2983-2993). Mice were injected intraperitoneally (i.p.) with 1×10^5 (C57BL6) plaque forming units (PFU) of MCMV. Virus titers were quantified on MEF cells by standard plaque assay on tissues removed at different times. Treatments were as follows: Thymosin alpha 1 and the scrambled polypeptide (both from SciClone Pharmaceuticals, San Mateo, CA) were supplied as purified (the endotoxin levels were <0.03 pg/ml, by a standard limulus lysate assay) sterile, lyophilized, acetylated polypeptide. The sequences were as follows: Ac-Ser-Asp-Ala-Ala-Val-Asp-Thr-Ser-Ser-Glu -Ile-Thr-Thr-Lys-Asp-Leu-Lys-Glu-Lys-Lys-Glu-Val-Glu-Glu-Ala-Glu-Asn-O (Tα1) SEQ ID NO:1 and Ac-Ala-Lys-Ser-Asp-Val-Lys-Ala-Glu-Thr-Ser-Ser-Glu-Ile-Asp-Thr-Thr-Glu-Leu -Asp-Glu-Lys-Val-Glu-Val-Lys-Ala-Asn-Glu-OH (scrambled peptide) SEQ ID NO:2. The lyophilized powders were reconstituted in sterile water and 200 μg/kg/i.p. were given daily for 7 or 14 consecutive days beginning the day of the infection. Gancyclovir (GCV) (Cymevene; from Recordati, Milan, Italy) was administered at 40 mg/kg/i.p. three times a week, every other day, beginning 6 h after infection. Controls received the scrambled peptide or the diluent alone.
Plaque assay. Plaque assay was determined on cells grown to subconfluence and incubated with serially diluted virus samples for 2 h at 37° C. (10). […]

## Ac-Ser-Asp-Ala-Ala-Val-Asp-Thr-Ser-Ser-Glu -Ile-Thr-Thr-Lys-Asp-Leu-Lys-Glu-Lys-Lys-Glu-Val-Glu-Glu-Ala-Glu-Asn-O (Ac-SDAAVDTSSEITTKDLKEKKEVEEAEN) [Thymosin alpha 1, acidic peptide present in thymus extract with immunoregulatory properties]
200 μg/kg for 7 days, both susceptible (BALB/c) and resistant (C57BL6) mice
  viral load in different visceral organs: significantly decreased the viral load
BALB/c mice infected with a higher PFU (data not shown)
  viral load: significantly decreased the viral load
Thymosin alpha 1 given for 14 days, compared with 7 days
  viral load in visceral organs: higher
Tα1 alone, 200 μg/kg/ip daily for 7 days, BALB/c or C57BL6 mice
  viral titers in the lung: decreased the viral titers
Resistant (C57BL6) mice, a week after infection
  viral load in salivary gland and liver: particularly evident
